Data set [1] deals with GABAA α1/β3/γ2 (Homo sapiens (Human), UniProt P14867+P18507). Kind of data set: Functional assay (PatchXpress automated patch-clamp), α1 subtype. Type of data set: cell-based. Conditions: % change of GABA EC20 response; compound 1 μM; HEK293 cells. The text has this: (§1) GABAA α5/β3/γ2 HEK293 cell line was used throughout the functional assay in PatchXpress (Molecular Devices), the automated patch-clamp system. Cells stably expressing the appropriate GABAA subtype (α5/β3/γ2, α1/β3/γ2, α2/β3/γ2 or α3/β3/γ2) were dissociated from poly-D-lysine treated tissue culture flasks using a mixture of one part TrypLE (Invitrogen, cat #12604): one part Dulbecco's Phosphate Buffered Saline (Invitrogen, cat #14190). The dissociated cells were re-suspended in growth media (D-MEM/F-12 media (Invitrogen, cat #11320) supplemented with 10% (v/v) Foetal Bovine Serum (Invitrogen, cat #10082) and 1% (v/v) non-essential amino acids (Invitrogen, cat #11140)) and allowed to recover for one hour at 37° C. in a humidified incubator with 5% CO2. At the end of the recovery period cells were centrifuged at 1,000 rpm for two minutes and the resulting pellet re-suspended in external solution (in mM; 137 NaCl, 4 KCl, 10 HEPES, 1.8 CaCl2, 1 MgCl2, 10 glucose, pH set to 7.35 with NaOH). Cells were counted and diluted to 2.5×10^6/ml in external solution. The patch-clamp assay protocol involved determination of current amplitude with control applications of GABA EC20 containing concentration-matched DMSO (0.3% v/v), then pre-incubation of the test compound for one minute prior to the addition of the same compound diluted with the GABA EC20. Compound and/or GABA was applied for five seconds, with two minute wash periods between applications. No wash period was present at the end of the compound pre-application stage. The internal solution comprised (in mM) 90 KCl, 50 KF, 11 EGTA, 10 HEPES, 1 MgCl2, 2 Mg-ATP, the pH was set to 7.35 with KOH and the holding potential was −60 mV. Compounds were assayed at a concentration of 1 μM.
Sequence of GABAA α1/β3/γ2 (P14867 28-456): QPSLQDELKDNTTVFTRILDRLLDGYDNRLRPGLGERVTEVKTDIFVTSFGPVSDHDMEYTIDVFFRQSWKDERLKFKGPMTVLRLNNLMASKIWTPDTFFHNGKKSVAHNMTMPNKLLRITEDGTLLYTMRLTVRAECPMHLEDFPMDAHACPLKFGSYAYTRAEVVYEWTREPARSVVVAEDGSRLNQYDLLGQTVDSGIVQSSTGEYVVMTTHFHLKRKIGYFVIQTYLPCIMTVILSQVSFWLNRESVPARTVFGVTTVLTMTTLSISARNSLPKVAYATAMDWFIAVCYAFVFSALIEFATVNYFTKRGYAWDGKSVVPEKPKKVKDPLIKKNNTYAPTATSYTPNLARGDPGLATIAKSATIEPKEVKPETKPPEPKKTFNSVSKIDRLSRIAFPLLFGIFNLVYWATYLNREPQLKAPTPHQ
Sequence of GABAA α1/β3/γ2 (P28472 26-473 partner): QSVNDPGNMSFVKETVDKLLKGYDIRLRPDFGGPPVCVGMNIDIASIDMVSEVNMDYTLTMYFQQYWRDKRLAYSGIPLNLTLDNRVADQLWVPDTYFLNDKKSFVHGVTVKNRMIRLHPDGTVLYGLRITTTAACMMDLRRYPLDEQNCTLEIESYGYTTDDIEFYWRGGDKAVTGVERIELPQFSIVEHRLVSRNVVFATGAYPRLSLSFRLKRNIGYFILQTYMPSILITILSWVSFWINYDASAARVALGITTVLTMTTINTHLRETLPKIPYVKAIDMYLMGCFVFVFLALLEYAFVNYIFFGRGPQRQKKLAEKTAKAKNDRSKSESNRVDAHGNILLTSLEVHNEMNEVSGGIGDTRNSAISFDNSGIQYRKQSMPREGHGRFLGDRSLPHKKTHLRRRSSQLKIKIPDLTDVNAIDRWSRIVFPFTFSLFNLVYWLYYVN
Sequence of GABAA α1/β3/γ2 (P18507 40-475): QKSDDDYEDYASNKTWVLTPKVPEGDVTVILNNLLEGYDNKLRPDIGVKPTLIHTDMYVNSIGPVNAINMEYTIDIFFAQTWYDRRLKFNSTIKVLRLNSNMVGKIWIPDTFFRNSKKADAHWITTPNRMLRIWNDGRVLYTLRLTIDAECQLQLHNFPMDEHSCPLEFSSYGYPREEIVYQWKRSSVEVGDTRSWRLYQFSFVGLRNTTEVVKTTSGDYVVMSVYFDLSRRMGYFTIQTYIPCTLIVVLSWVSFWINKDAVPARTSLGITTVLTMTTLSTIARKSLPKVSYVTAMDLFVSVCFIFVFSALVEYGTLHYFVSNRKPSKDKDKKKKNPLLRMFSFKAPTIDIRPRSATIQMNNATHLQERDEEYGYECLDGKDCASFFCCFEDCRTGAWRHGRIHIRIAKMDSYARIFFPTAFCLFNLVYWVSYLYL
On the technique in general: The patch-clamp technique gives a direct electrical read-out from membranes.

In data set [2] the target is T1, GABAA α5/β3/γ2 (Homo sapiens (Human), UniProt P18507+P31644). The experiment in a line: Functional assay (PatchXpress automated patch-clamp), α5 subtype. The note with it: % change of GABA EC20 response; compound 1 μM; HEK293 cells. It is filed as cell-based.
T1 sequence (P31644 32-462): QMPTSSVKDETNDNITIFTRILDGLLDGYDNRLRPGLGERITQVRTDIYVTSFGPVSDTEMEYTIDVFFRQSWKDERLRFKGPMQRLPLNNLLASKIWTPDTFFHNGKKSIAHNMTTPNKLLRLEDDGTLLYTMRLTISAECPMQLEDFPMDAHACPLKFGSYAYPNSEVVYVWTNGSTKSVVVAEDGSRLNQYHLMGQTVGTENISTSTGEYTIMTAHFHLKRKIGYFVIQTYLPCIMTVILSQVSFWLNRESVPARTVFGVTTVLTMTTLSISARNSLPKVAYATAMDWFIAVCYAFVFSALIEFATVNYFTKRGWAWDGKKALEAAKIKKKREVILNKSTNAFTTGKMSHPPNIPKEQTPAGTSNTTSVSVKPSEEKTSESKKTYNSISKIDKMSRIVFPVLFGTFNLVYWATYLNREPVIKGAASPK
T1 sequence (P28472 26-473 partner): as the sequence (P28472 26-473 partner) above
T1 sequence (P18507 40-475): as the sequence (P18507 40-475) above
From the text: as §1

Data set [3] addresses T1, GABAA α5/β3/γ2. Kind of data set: Binding assay (Scintillation Proximity Assay, [3H]-Ro15-1788). The note with it: membranes of HEK293 cells expressing GABAA α5/β3/γ2. The protocol: The GABAAα5/β3/γ2 protein used for the Scintillation Proximity Assay was derived from membranes produced from HEK293 GABAA α5/β3/γ2 expressing HEK293 cell line. HEK293 GABAA α5/β3/γ2 expressing HEK293 cell line was cultured, then harvested and centrifuged the cells. Membranes were produced by homogenization of the cell pellet with a tissue homogenizer. The resulting homogenate was centrifuged at 48,000 g for 30 minutes, re-suspended and washed twice with 10 mM potassium phosphate buffer, pH 7.4. Final resuspension of membranes took place in buffer containing 10 mM potassium phosphate and 100 mM KCl.
For assay, test compound (50×) was added 0.5 μl per well to a white-walled clear-bottomed 384-well plate.
Full signal controls were prepared by the addition of 0.5 μl of DMSO to the appropriate wells. Mixture of 10 μl of protein and 10 μl of PVT-WGA beads (0.2 mg/well) were added to the plate. Both protein and bead were diluted to the desired concentration with 10 mM potassium phosphate, pH 7.4, containing 100 mM KCl. The plate was pre-incubated for 30 minutes at room temperature with shaking before initiation of the reaction by the addition of radioligand. 5 μl of [^3H]-Ro15-1788 was added at a concentration of 30 nM (5×) and the plates sealed. The reaction mix was incubated at room temperature overnight with gentle agitation on a plate shaker. The final DMSO concentration for all phases of the screening was 2% (v/v). At the end of the overnight incubation, the plates were centrifuged for two minutes at 1,000 rpm prior to reading on a Perkin Elmer Microbeta.
Concentration-response testing was performed in duplicate and the percent effect calculated for each replicate data point. The raw data was entered in Activity Base and the curves were fitted to the mean data using Excel and XL Fit, and shown as Ki.

Data set [4] can be described thus: Cryopreserved hepatocyte stability. It is filed as in vitro ADME. The note with it: human hepatocytes 0.5 million cells/mL, 1 μM, 37° C.; compound remaining; time point not stated. The protocol:
Hepatocyte stability assays were performed using pooled human cryopreserved hepatocytes. Test and control compounds (testosterone, midazolam, 4-methylumbelliferone), prepared in DMSO, were incubated at an initial concentration of 1 μM (0.25% DMSO final, n=2) with hepatocytes at cell densities of 0.5 million cells/mL for both species at 37° C. Aliquots were removed at 0, 10, 20, 45 and 90 minutes for termination of reactions and compound extraction with acetonitrile containing an analytical internal standard. Samples were centrifuged and the supernatant fractions analysed for parent compound by mass spectrometry (LC-MS/MS).
(§2) The amount of compound remaining (expressed as %) was determined from the MS response in each sample relative to that in the T=0 samples (normalised for internal standard).
Ln plots of the % remaining were used to determine the half-life for compound disappearance using the relationship: t½(min)=−0.693/λ where λ is the slope of the Ln % remaining vs time curve. Hepatic Microsomal Stability: Half-life/Intrinsic Clearance Format

A short description of data set [5]: Hepatic microsomal stability. Type of data set: in vitro ADME. Conditions: human microsomes 0.5 mg protein/mL, NADPH, 1 μM, 37° C.; compound remaining; time point not stated. The protocol:
Microsomal stability assays were performed using pooled hepatic microsomes from human. Test and control compounds (propranolol or dextromethorphan, midazolam), prepared in DMSO, were incubated at an initial concentration of 1 μM (0.25% DMSO final, n=2) with microsomes (0.5 mg protein/mL) at 37° C. in the presence of the cofactor, NADPH (1 mM). Aliquots were removed at 0, 5, 10, 20 and 40 minutes for termination of reactions and compound extraction with acetonitrile containing an analytical internal standard. Samples were centrifuged and the supernatant fractions analysed for parent compound by mass spectrometry (LC-MS/MS).
as §2
Ln plots of the % remaining were used to determine the half-life for compound disappearance using the relationship: t½(min)=−0.693/λ where λ is the slope of the Ln % remaining vs time curve.

The term inhibition denotes the drop in the measured response relative to a control, in per cent. The term Ki denotes the dissociation constant of the complex between target and ligand, obtained from inhibition or displacement.

On to `O=C1COc2cc(Nc3cc4c(cn3)ncn4CC3CC3)ccc2N1C1CC1` [Example 37, 4-Cyclopropyl-7-((1-(cyclopropylmethyl)-1H-imidazo[4,5-c]pyridin-6-yl)amino)-2H-benzo[b][1,4]oxazin-3(4H)-one], for which the inhibition at 1 µM is -5% in data set [1] and 46% in data set [2]. This molecule gave a Ki in data set [3] of 38.8 nM.
On the same counts, the results for `CN1C(=O)COc2cc(Nc3cnc4ncn(CC5CC5)c4n3)ccc21` [Example 42, 7-((1-(Cyclopropylmethyl)-1H-imidazo[4,5-b]pyrazin-6-yl)amino)-4-methyl-2H-benzo[b][1,4]oxazin-3(4H)-one] are 0.2%, 55.9% and 24 nM.
With `Cn1c(=O)oc2cc(Nc3cnc4ncn(CC5CC5)c4n3)ccc21` [Example 43, 6-((1-(Cyclopropylmethyl)-1H-imidazo[4,5-b]pyrazin-6-yl)amino)-3-methylbenzo[d]oxazol-2(3H)-one], the results for the inhibition at 1 µM in data set [1] and in data set [2] were 8% and 55.1%, respectively. For the same molecule, affinity in data set [3] was put at a Ki of 42 nM.
As for `COCCN1C(=O)COc2cc(Nc3ncc4ncn(CC5CC5)c4n3)ccc21` [Example 46, 7-((9-(Cyclopropylmethyl)-9H-purin-2-yl)amino)-4-(2-methoxyethyl)-2H-benzo[b][1,4]oxazin-3(4H)-one], the inhibition at 1 µM in data set [1] is -0.9%; in data set [2] it was 42.4%. The Ki in data set [3] stood at 38 nM.
On the same counts, the results for `CN1C(=O)COc2cc(Nc3cc4c(cc3F)ncn4CC3CC(F)(F)C3)cnc21` [Example 52, 7-((1-((3,3-Difluorocyclobutyl)methyl)-5-fluoro-1H-benzo[d]imidazol-6-yl)amino)-4-methyl-2H-pyrido[3,2-b][1,4]oxazin-3(4H)-one] are 7.5%, 41.8% and 6.7 nM.
On to `CN1C(=O)COc2cc(Nc3cc4c(cc3F)ncn4CCC3CC3)cnc21` [Example 67, 7-((1-(2-Cyclopropylethyl)-5-fluoro-1H-benzo[d]imidazol-6-yl)amino)-4-methyl-2H-pyrido[3,2-b][1,4]oxazin-3(4H)-one], for which the inhibition at 1 µM was -0.5% in data set [1] and 52.5% in data set [2]. For the same molecule, affinity in data set [3] was put at a Ki of 4.1 nM.
In the case of `Cc1c(F)c(Nc2cc3c(cn2)N(C)C(=O)CO3)cc2c1ncn2CC1CC1` [Example 87, 7-((1-(Cyclopropylmethyl)-5-fluoro-4-methyl-1H-benzo[d]imidazol-6-yl)amino)-4-methyl-2H-pyrido[4,3-b][1,4]oxazin-3(4H)-one], the “hepatocyte stability (%)” value in data set [4] came to 103%. Further, the “microsomal stability (%)” value in data set [5] was 76%.
With `Cc1c(F)c(Nc2ccc(-n3ccnc3)nc2)cc2c1ncn2CC1CC1` [Example 88, N-(6-(1H-Imidazol-1-yl)pyridin-3-yl)-1-(cyclopropylmethyl)-5-fluoro-4-methyl-1H-benzo[d]imidazol-6-amine], the “hepatocyte stability (%)” value in data set [4] came out at 81%. For the same molecule, the “microsomal stability (%)” value in data set [5] was 95%.
Consider `Fc1cc(Nc2cc3c(ncn3CC3CC3)c(F)c2F)ccc1-n1ccnc1` [Example 95, 1-(Cyclopropylmethyl)-4,5-difluoro-N-(3-fluoro-4-(1H-imidazol-1-yl)phenyl)-1H-benzo[d]imidazol-6-amine], for which the “hepatocyte stability (%)” value in data set [4] stood at 96%. The “microsomal stability (%)” value in data set [5] was found to be 89%.
For `CN1C(=O)COc2ncc(Nc3ccc4ncn(CC5CC5)c4n3)cc21` [Example 111, 7-((3-(Cyclopropylmethyl)-3H-imidazo[4,5-b]pyridin-5-yl)amino)-1-methyl-1H-pyrido[2,3-b][1,4]oxazin-2(3H)-one], the inhibition at 1 µM in data set [1] is -0.3%; in data set [2] it was 44.4%. Also, in data set [3], the affinity corresponds to a Ki of 34.6 nM.
Consider `Cc1nc(Nc2cnc3c(c2)OCC(=O)N3C)cc2c1ncn2CC1CC1` [Example 120, 7-((1-(Cyclopropylmethyl)-4-methyl-1H-imidazo[4,5-c]pyridin-6-yl)amino)-4-methyl-2H-pyrido[3,2-b][1,4]oxazin-3(4H)-one], for which the “hepatocyte stability (%)” value in data set [4] is recorded as 85%. In data set [5], the “microsomal stability (%)” value amounted to 94%.
On the same counts, the results for `Cc1nc(Nc2ccc3c(n2)OCC(=O)N3C)cc2c1ncn2CC1CC1` [Example 124, 6-((1-(Cyclopropylmethyl)-4-methyl-1H-imidazo[4,5-c]pyridin-6-yl)amino)-1-methyl-1H-pyrido[2,3-b][1,4]oxazin-2(3H)-one] are 75% and 72%.
In the same order, the values of `CN1C(=O)COc2nc(Nc3cc(C(F)(F)F)c4ncn(CC5CC5)c4n3)ccc21` [Example 151, 6-((3-(Cyclopropylmethyl)-7-(trifluoromethyl)-3H-imidazo[4,5-b]pyridin-5-yl)amino)-1-methyl-1H-pyrido[2,3-b][1,4]oxazin-2(3H)-one] are 101% and 77%.
For the molecule `Cc1cc(Nc2ccc3c(n2)OCC(=O)N3C)nc2c1ncn2CC1CC1` [Example 159, 6-((3-(Cyclopropylmethyl)-7-methyl-3H-imidazo[4,5-b]pyridin-5-yl)amino)-1-methyl-1H-pyrido[2,3-b][1,4]oxazin-2(3H)-one], the inhibition at 1 µM in data set [1] stood at 4.8%; in data set [2], 46.7%. Also, in data set [3], the Ki was 6.4 nM.

These data come from patent US10016439B2, “Fused imidazole compounds” (ONO PHARMACEUTICAL CO., LTD., priority 2014, dated 2018).
